Results as given in patent publication EP4717267A1, “SYNERGISTIC COMBINATION FOR TREATING CANCER” (FUNDACION UNIVERSITARIA SAN ANTONIO (UCAM), priority 2023, dated 2024).

Tests used:
U-87MG cells = assay: MTT colorimetric cytotoxicity assay on U-87MG cells, single drugs and two-drug combinations, with combination index (CompuSyn); assay type: cell-based, Human; conditions: for IC50: Homo sapiens, single drug, U-87MG, 72 hours, MTT, read-out: IC50 value (cell survival)
Procedure: Glimepiride and its analogs were first prepared as a stock solution in DMSO, and then the drugs were dissolved fresh in culture medium enriched with Tween 80 (final concentration 0.05%).
Human cancer cells (MCF-7, A549 and U-87MG) and normal endothelial cells (HMEC-1) were obtained from American Type Cell Culture (Rockville, MD). The cancer cell lines (MCF-7, A549 and U-87MG) were cultured as monolayers in Dulbecco's modified Eagle's medium supplemented with 10% (v/v) fetal bovine serum and 1% (v/v) penicillin/streptomycin mixture (10,000 U/mL penicillin and 10 mg/mL streptomycin) in a 100% humidified atmosphere of 5% CO2 and 95% air at 37 °C. Normal endothelial cells (HMEC-1) were cultured in MCDB 131 medium supplemented with 10% (v/v) fetal bovine serum, 10 ng/mL EGF, 1 µg/mL hydrocortisone and 1% (v/v) penicillin/streptomycin solution, in a humidified atmosphere of 5% CO2 and 95% air at 37 °C. Cell cultures were kept in the exponential growth phase by regularly passaging cells three times a week with 0.25% trypsin/EDTA mixture.
(§1) IC50 values were calculated using GraphPad Prism software.
(§2) This equation defines "Synergism" (CI < 1), "Additive effect" (CI = 1) and "Antagonism" (CI > 1).
All data are expressed as mean±standard deviation (SD) and presented as a percentage of control (untreated cells) taken as 100%, n=3 (or more). Sample size was estimated for Type I and Type II statistical errors of […], respectively. Normality of the data was checked with the Shapiro-Wilk test, and the homogeneity of variance was checked with the Levene or Brown-Forsythe test. The significance of differences between pairs of means was estimated using one-way ANOVA and Tukey's post-hoc test. For each analysis, the post-hoc power of the used tests was checked. Statistical power below 80% was considered a null result, and constructive conclusions were not made. All statistics were calculated using […] (StatSoft, USA) or GraphPad Prism software.

MCF-7 cells = assay: MTT colorimetric cytotoxicity assay on MCF-7 cells, single drugs and two-drug combinations, with combination index (CompuSyn); assay type: cell-based, Human; conditions: for IC50: Homo sapiens, MCF7, read-out: IC50 concentration, which inhibits MCF-7 cell proliferation by 50% compared to control cells, single drug, MCF-7, 72 hours, MTT; for effect of the analog in combination with Doxorubicin on the anticancer activity of Doxorubicin: MCF-7, combination with Doxorubicin; for type of drug interaction with Doxorubicin (combination index): MCF-7
Procedure: as §1, §2

A549 cells = assay: MTT colorimetric cytotoxicity assay on A549 cells, single drugs and two-drug combinations, with combination index (CompuSyn); assay type: cell-based; conditions: Homo sapiens, A549, 72 hours, read-out: IC50 value for cancer cell survival
Procedure: The cancer cell lines (MCF-7, A549 and U-87MG) were cultured as monolayers in Dulbecco's modified Eagle's medium supplemented with 10% (v/v) fetal bovine serum and 1% (v/v) penicillin/streptomycin mixture (10,000 U/mL penicillin and 10 mg/mL streptomycin) in a 100% humidified atmosphere of 5% CO2 and 95% air at 37 °C. […] Cell cultures were kept in the exponential growth phase by regularly passaging cells three times a week with 0.25% trypsin/EDTA mixture.
The cytotoxic activity of the test compounds against cancer cell lines was tested using the standard MTT (3-(4,5-dimethylthiazol-2-yl)-2,5-diphenyltetrazolium bromide) colorimetric assay. […] Briefly, exponentially proliferating cells were seeded into each well of a 96-well microplate (about 5×10^3 cells/well). After 24 hours, test compounds at various concentrations were added to the respective wells, and the cells were incubated for another 72 hours. After incubating the cells with the test compounds, the medium was removed and MTT solution with a final concentration of 0.5 mg/mL was added. After 4 hours of incubation, the MTT solution was replaced with DMSO to dissolve the resulting violet formazan crystals in metabolically viable cells. Plates were gently shaken at room temperature until the formazan was completely dissolved and read at 540 nm using a microplate reader. […] The experiment was repeated at least three times under the same conditions. […] IC50 values were calculated using GraphPad Prism software. […] The test drugs were administered to the cells at the same time.
The combination index (CI) method - a dimensionless quantity used to determine and quantify the type of drug interaction - for binary combinations was calculated using CompuSyn software based on the equation: (CI)x = ((D)1)/((Dx)1) + ((D)2)/((Dx)2) = ((D)1)/((Dm)1 ([(fa)/((1−fa))])^((1)/(m1))) + ((D)2)/((Dm)2 ([(fa)/((1−fa))])^((1)/(m2))) [formula] […]
All data are expressed as mean±standard deviation (SD) and presented as a percentage of control (untreated cells) taken as 100%, n=3 (or more). […]

[1] = system: MDA-MB-231 breast carcinoma cells; conditions: Glibenclamide alone; inhibits G1-S phase progression without cell death or differentiation; cited from earlier work
[2] = Glimepiride analog 100-500 µM in combination with Doxorubicin 0.225, 0.450, 0.900 µM

| Structure (SMILES) | effect of the analog in combination with Doxorubicin on the anticancer activity of Doxorubicin (MCF-7 cells) | type of drug interaction with Doxorubicin (combination index) (MCF-7 cells; [2]) | further results |
| --- | --- | --- | --- |
| CCCCCOC(=O)Nc1nc(=O)n([C@@H]2O[C@H](C)[C@@H](O)[C@H]2O)cc1F [CAPE, pentyl N-[1-[(2R,3R,4S,5R)-3,4-dihydroxy-5-methyloxolan-2-yl]-5-fluoro-2-oxopyrimidin-4-yl]carbamate] | – | – | IC50 (U-87MG cells): 40 nM; IC50 (MCF-7 cells): 180 nM; IC50 (A549 cells): 60 nM |
| CCCCNC(=O)NS(=O)(=O)c1ccc(N)cc1 [Carbutamide] | beneficial effect | – | – |
| CCCNC(=O)NS(=O)(=O)c1ccc(Cl)cc1 [Chlorpropamide, 1-(4-chlorophenyl)sulfonyl-3-propylurea] | beneficial effect | strong or very strong synergy | – |
| CC(=O)O[C@@]12CO[C@@H]1C[C@H](O)[C@@]1(C)C(=O)[C@H](O)C3=C(C)[C@@H](OC(=O)[C@H](O)[C@@H](NC(=O)OC(C)(C)C)c4ccccc4)C[C@@](O)([C@@H](OC(=O)c4ccccc4)[C@H]21)C3(C)C [DOCE, [(1S,2S,3R,4S,7R,9S,10S,12R,15S)-4-acetyloxy-1,9,12 trihydroxy-15-[(2R,3S)-2-hydroxy-3-[(2-methylpropan-2-yl)oxycarbonylamino]-3 phenylpropanoyl]oxy-10,14,17,17-tetramethyl-11-oxo-6 oxatetracyclo[11.3.1.03,1 0.04, 7]heptadec-13-en-2-yl] benzoate] | – | – | IC50 (U-87MG cells): 80 nM; IC50 (MCF-7 cells): 240 nM; IC50 (A549 cells): 150 nM |
| COc1cccc2c1C(=O)c1c(O)c3c(c(O)c1C2=O)C[C@@](O)(C(=O)CO)C[C@@H]3O[C@H]1C[C@H](N)[C@H](O)[C@H](C)O1 [Doxorubicin, (7S,9S)-7-[(2R,4S,5S,6S)-4-amino-5-hydroxy-6 methyloxan-2-yl]oxy-6,9,11-trihydroxy-9-(2-hydroxyacetyl)-4-methoxy-8,10-dihydro-7H tetracene-5,12-dione] | – | – | U-87MG cell survival (U-87MG cells; 0.52 µM Doxorubicin alone): 75.6% |
| COc1ccc(Cl)cc1C(=O)NCCc1ccc(S(=O)(=O)NC(=O)NC2CCCCC2)cc1 [Glibenclamide] | beneficial effect | strong or very strong synergy | effect in MDA-MB-231 cells [1]: cytostatic effect |
| Cc1ccc(S(=O)(=O)NC(=O)NN2CC3CCCC3C2)cc1 (centres unmarked) [Gliclazide, 1-(3,3a,4,5,6,6a-hexahydro-1H-cyclopenta[c]pyrrol-2-yl)-3-(4-methylphenyl)sulfonylurea] | beneficial effect | strong or very strong synergy | – |
| CCC1=C(C)CN(C(=O)NCCc2ccc(S(=O)(=O)NC(=O)NC3CCC(C)CC3)cc2)C1=O (centres unmarked) [Glimepiride, 4-ethyl-3-methyl-N-[2-[4-[(4-methylcyclohexyl)carbamoylsulfamoyl]phenyl]ethyl]-5-oxo-2H-pyrrole-1-carboxamide] | – | – | IC50 (U-87MG cells): 149000 ± 12200 nM; IC50 (MCF-7 cells): 186000 ± 7020 nM; IC50 (A549 cells): 389000 ± 4490 nM |
| Cc1cnc(C(=O)NCCc2ccc(S(=O)(=O)NC(=O)NC3CCCCC3)cc2)cn1 [Glipizide, N-[2-[4-(cyclohexylcarbamoylsulfamoyl)phenyl]ethyl]-5-methylpyrazine-2-carboxamide] | beneficial effect | – | – |
| COc1ccc2c(c1)C(=O)N(CCc1ccc(S(=O)(=O)NC(=O)NC3CCCCC3)cc1)C(=O)C2(C)C [Gliquidone] | beneficial effect | not every combination of concentrations of Doxorubicin and Gliquidone produce a synergistic effect | type of drug interaction with Doxorubicin (combination index) (MCF-7 cells; 100 µM analog in combination with Doxorubicin 0.225, 0.450, 0.900 µM): additive effect or slight antagonism; type of drug interaction with Doxorubicin (combination index) (MCF-7 cells; other dose combinations (analog above 100 µM) with Doxorubicin): synergistic effects |
| Cc1ccc(S(=O)(=O)NC(=O)NN2CCCCCC2)cc1 [Tolazamide, 1-(azepan-1-yl)-3-(4-methylphenyl)sulfonylurea] | beneficial effect | strong or very strong synergy | – |
| CCCCNC(=O)NS(=O)(=O)c1ccc(C)cc1 [Tolbutamide, 1-butyl-3-(4-methylphenyl)sulfonylurea] | beneficial effect | – | – |
